In US6897244B2, “Dihydronootkatone and tetrahydronootkatone as repellents to arthropods” (Board of Supervisors of Louisiana State University and …, priority 2002, dated 2005):

System: Formosan subterranean termites
Experiment: Petri dish treated/untreated sand bioassay for repelling activity against termites
Assay type: in vivo, Coptotermes formosanus
Parameters: key to percent of termites on untreated sand vs expected value of 50% (Chi-Square, p≦0.05): “−” indicates the test was not significantly different from the expected value; “+” indicates the test was significantly different from the expected value
Experimental: A carton nest (colony A) of Formosan subterranean termites was collected in Algiers, Louisiana in November 1997, and held in 250-liter cans. The cans were filled with pine as a food source, and kept at a temperature range of 24-26° C. Moistened corrugated cardboard rolls were used to retrieve termites from the cans. Once the termites migrated to the cardboard rolls, they were gently knocked from the cardboard rolls into clean rectangular plastic trays (40 cm×50 cm). Retrieved termites were isolated from debris by allowing them to cling to sheets of moistened paper towels. The average weight of each termite was 1.21 mg.
To test for effectiveness of nootkatone, 1,10-dihydronootkatone and tetrahydronootkatone in repelling termites, a bioassay was conducted using Petri dishes (5 cm diameter and 1 cm height). To ensure adequate moisture for the termites, 1 ml of a hot agar solution (1.5% in H2O) was spread on the bottom of the Petri dish. After the agar cooled, sand that was treated as described below was spread on the bottom of the Petri dish. For the treated sand, purified 1,10-dihydronootkatone or tetrahydronootkatone were dissolved in 2 ml ethanol, and then diluted to achieve final concentrations of 1, 2, 5, 12.5, 25, 50, and 100 μg/g sand. The solution was mixed with 1 g sand that had been autoclaved and cooled. The control sand was autoclaved sand with only 200 μl ethanol added. One half of the surfaces in the Petri dishes were covered with 1 g treated sand, and the other half with 1 g untreated sand.
The prepared Petri dishes were then used to evaluate the repelling activity against Formosan subterranean termites. Ten worker termites were added to each Petri dish, and the dishes were covered to eliminate light. Five replicate dishes were tested for each concentration and for the control. Termite position was recorded every 15 min during the first hour of testing by counting the number of termites observed on untreated sand. After the first hour, termite position was recorded each hour for 3 hr.
Differences between the percent of termites on untreated sand and an expected value were statistically analyzed by a Chi-Square analysis, using an expected value of 50% and a significance level of p≦0.05.

C=C(C)C1CCC2CC(=O)CC(C)C2(C)C1 (centres unmarked) [Dihydronootkatone, 1,4,4a,5,6,7,8,10-octahydro-6-isopropenyl-4,4a-dimethyl-2(1H)-naphthalenone]
−: percent of termites on untreated sand vs expected value of 50% (Chi-Square, p≦0.05) (2 μg/dish, 0.25 hour) | percent of termites on untreated sand vs expected value of 50% (Chi-Square, p≦0.05) (2 μg/dish, 0.5 hour) | percent of termites on untreated sand vs expected value of 50% (Chi-Square, p≦0.05) (2 μg/dish, 0.75 hour) | percent of termites on untreated sand vs expected value of 50% (Chi-Square, p≦0.05) (2 μg/dish, 1 hour) | percent of termites on untreated sand vs expected value of 50% (Chi-Square, p≦0.05) (2 μg/dish, 2 hour) | percent of termites on untreated sand vs expected value of 50% (Chi-Square, p≦0.05) (2 μg/dish, 3 hour) | percent of termites on untreated sand vs expected value of 50% (Chi-Square, p≦0.05) (5 μg/dish, 0.25 hour) | percent of termites on untreated sand vs expected value of 50% (Chi-Square, p≦0.05) (5 μg/dish, 0.5 hour) | percent of termites on untreated sand vs expected value of 50% (Chi-Square, p≦0.05) (5 μg/dish, 0.75 hour) | percent of termites on untreated sand vs expected value of 50% (Chi-Square, p≦0.05) (5 μg/dish, 1 hour) | percent of termites on untreated sand vs expected value of 50% (Chi-Square, p≦0.05) (5 μg/dish, 2 hour) | percent of termites on untreated sand vs expected value of 50% (Chi-Square, p≦0.05) (5 μg/dish, 3 hour) | percent of termites on untreated sand vs expected value of 50% (Chi-Square, p≦0.05) (25 μg/dish, 0.25 hour)
8: factor by which the effective termite-repellent concentration is lower than that of nootkatone (relative to nootkatone)
12.5 µg: concentration effective as termite repellent (time periods up to 3 hr)
+: percent of termites on untreated sand vs expected value of 50% (Chi-Square, p≦0.05) (12.5 μg/dish, 0.25 hour) | percent of termites on untreated sand vs expected value of 50% (Chi-Square, p≦0.05) (12.5 μg/dish, 0.5 hour) | percent of termites on untreated sand vs expected value of 50% (Chi-Square, p≦0.05) (12.5 μg/dish, 0.75 hour) | percent of termites on untreated sand vs expected value of 50% (Chi-Square, p≦0.05) (12.5 μg/dish, 1 hour) | percent of termites on untreated sand vs expected value of 50% (Chi-Square, p≦0.05) (12.5 μg/dish, 2 hour) | percent of termites on untreated sand vs expected value of 50% (Chi-Square, p≦0.05) (12.5 μg/dish, 3 hour) | percent of termites on untreated sand vs expected value of 50% (Chi-Square, p≦0.05) (25 μg/dish, 0.5 hour) | percent of termites on untreated sand vs expected value of 50% (Chi-Square, p≦0.05) (25 μg/dish, 0.75 hour) | percent of termites on untreated sand vs expected value of 50% (Chi-Square, p≦0.05) (25 μg/dish, 1 hour) | percent of termites on untreated sand vs expected value of 50% (Chi-Square, p≦0.05) (25 μg/dish, 2 hour) | percent of termites on untreated sand vs expected value of 50% (Chi-Square, p≦0.05) (25 μg/dish, 3 hour) | percent of termites on untreated sand vs expected value of 50% (Chi-Square, p≦0.05) (50 μg/dish, 0.25 hour) | percent of termites on untreated sand vs expected value of 50% (Chi-Square, p≦0.05) (50 μg/dish, 0.5 hour) | percent of termites on untreated sand vs expected value of 50% (Chi-Square, p≦0.05) (50 μg/dish, 0.75 hour) | percent of termites on untreated sand vs expected value of 50% (Chi-Square, p≦0.05) (50 μg/dish, 1 hour) | percent of termites on untreated sand vs expected value of 50% (Chi-Square, p≦0.05) (50 μg/dish, 2 hour) | percent of termites on untreated sand vs expected value of 50% (Chi-Square, p≦0.05) (50 μg/dish, 3 hour) | percent of termites on untreated sand vs expected value of 50% (Chi-Square, p≦0.05) (100 μg/dish, 0.25 hour) | percent of termites on untreated sand vs expected value of 50% (Chi-Square, p≦0.05) (100 μg/dish, 0.5 hour) | percent of termites on untreated sand vs expected value of 50% (Chi-Square, p≦0.05) (100 μg/dish, 0.75 hour) | percent of termites on untreated sand vs expected value of 50% (Chi-Square, p≦0.05) (100 μg/dish, 1 hour) | percent of termites on untreated sand vs expected value of 50% (Chi-Square, p≦0.05) (100 μg/dish, 2 hour) | percent of termites on untreated sand vs expected value of 50% (Chi-Square, p≦0.05) (100 μg/dish, 3 hour)
